In US20200123127A1, “REMOVAL OF SENESCENCE-ASSOCIATED MACROPHAGES” (EVERON BIOSCIENCES, INC., priority 2016, published 2020):
Like-named read-outs stand apart in the source and are kept apart here.

Tests used:
[1] = tested on: NF-κB; test: NF-κB luciferase reporter in HT1080 cells; format: cell-based; conditions: HT1080 cells carrying IPTG-inducible p21
[2] = tested on: p16(Ink4a) expression in adipose tissue macrophages; test: Poly(I:C) in chronologically aged p16Ink4a/Luc mice; format: in vivo, mouse
Procedure: Given that macrophages contribute to the elevated p16(Ink4a) expression observed in aged mice, we investigated whether this expression was susceptible to immunomodulatory regulation. Chronologically aged mice (83-weeks old) were treated with Poly(I:C) and the luminescence of individual organs was quantitated via IVIS. […] Thus, the observed decrease in the luciferase signal in adipose tissue upon treatment with Poly(I:C) was not accompanied by the depletion of macrophages.

[3] = tested on: RWPE-1 normal prostate epithelial cells; test: dnPTEN-induced senescence model in RWPE-1 cells (SA-beta-Gal and methylene blue staining); format: cell-based; conditions: 10 uM for 72 hours
Procedure: FIG. 3. Activity of A1.1 and analog A1.12 in a model of dnPTEN-induced senescence in RWPE-1 normal prostate epithelial cells. A population of transduced RWPE-1 cells containing doxycycline-inducible dnPTEN was senesced via 1 ug/ml doxycycline for 7 days. Cells which bypass senescence continued to proliferate to form a confluent monolayer. The mixed population of senescent and proliferating cells was treated with A1.1 and A1.12 at 10 uM for 72 hours. SA-beta-Gal staining was used to monitor the amount of senescent cells of treatment groups compared to non-treated control. In addition, methylene blue was used to quantitate overall cell mass, which was comprised mostly of the non-senescent, proliferating cells. Treatment with the anti-senescent compounds led to a substantial decrease in SA-beta-Gal staining, while the amount of methylene blue staining was less affected.
Senescent cells are strongly associated with benign prostate hyperplasia (BPH) and the development of prostate cancer [Vital, P. et al. (2014) The Senescence-Associated Secretory Phenotype Promotes Benign Prostatic Hyperplasia. Am J Pathol, 184(3): 721-731; Burton, D. et al. (2013). Androgen Deprivation-Induced Senescence Promoted Outgrowth of Anderogen-Refractory Protstate Cancer Cells. PLOS One, 8(6):e68003]. […] We sought to evaluate the efficacy of our compounds in a model of RWPE-1 normal prostate epithelial cells transduced with a construct for inducible loss of PTEN function [doxycycline-inducible expression of a dominant-negative PTEN (dnPTEN) mutant]. In the presence of doxycycline, a fraction of the population of transduced cells became senescent, while cells bypassing senescence continued to grow until a confluent monolayer was formed.

[4] = tested on: AdMSC primary adipose-derived mesenchymal stromal cells; test: Anti-senescent cytotoxicity, senescent vs proliferating AdMSC; format: cell-based, Human; conditions: for IC50: Homo sapiens
[5] = tested on: SK-Mel-103 melanoma cells; test: Anti-senescent cytotoxicity, senescent vs proliferating SK-Mel-103; format: cell-based, Human; conditions: for IC50: Homo sapiens
[6] = tested on: mLF primary lung fibroblasts; test: Anti-senescent cytotoxicity, senescent vs proliferating mLF; format: cell-based, Mouse; conditions: for IC50: Mus musculus, Primary lung fibroblast
Procedure: For generation senescent human neonatal dermal fibroblasts (NDFs) and adult rat dermal fibroblasts (RDFs), cells are treated at ˜10 ug/ml bleomycin for 3 days (for bleomycin-induced senescence) or irradiated once at 20 Gy using a gamma irradiator (Cs source), followed by at least 7 day recovery in fresh medium for induction of senescence. Senescent and non-senescent (proliferating) cells for each cell line are plated into 384-w plate, followed by 72 hour exposure to a dose titration of compounds. Viability measurements are estimated using the resazurin viability assay. Using GraphPad Prism 5, the IC50 values are calculated from the non-linear regression of log-transformed compound concentrations versus dose-response normalized to background and non-treated controls.
Anti-senescent selectivity is observed in primary human dermal fibroblasts (NDFs) induced to senescence via genotoxic stress, oxidative stress and replicative stress. In addition, human, rat and mouse cells senesced via bleomycin and irradiation all show sensitivity towards A1.1 treatment compared to A1.1-treated naïve cell controls.

[7] = tested on: A549 lung adenocarcinoma cells; test: Anti-senescent cytotoxicity, senescent vs proliferating A549; format: cell-based, Human; conditions: for IC50: Homo sapiens
[8] = tested on: human neonatal dermal fibroblasts (NDF); test: Resazurin viability assay, senescent vs proliferating/quiescent human neonatal dermal fibroblasts; format: cell-based; conditions: for IC50: Homo sapiens, Fibroblast

O=C(NCCCc1cn[nH]c1)c1ccc(-c2ccncc2)c(C#Cc2ccc(F)cc2)c1 [OT-82]
basal and inducible activity of NF-κB [1]: inhibits both basal and inducible activity

Poly(I:C)
luminescence of other tissues (spleen, lungs, kidney, liver) ([2]; 83-weeks old mice): no significant effects
reduction in luminescence from visceral adipose tissue ([2]; 83-weeks old mice, IVIS of organs): ~4 fold
luciferase activity from isolated stromal vascular fraction vs saline ([2]; per cell or per gram of fat): significantly decreased

CCOC(=O)c1sc(SCc2ccccc2)c2c1CC(c1ccc(OC)cc1)C/C2=N\O (stereo not drawn) [Example A1.1]
proliferating cells / overall cell mass (methylene blue staining) [3]: inhibit growth of proliferating cells
senescent cells (number of SA-β-Gal-positive cells) ([3]; dnPTEN-induced senescence): selective elimination of senescent cells
Selectivity (Prolif/Sen) ([4]; AdMSC, Bleomycin): 2.3
IC50 ([4]; AdMSC proliferating, read-out: Activity against Proliferating Cells (IC50; uM)): 12.6 µM
IC50 ([4]; AdMSC, senescence induction: Bleomycin, read-out: Activity against Senescent Cells (IC50; uM)): 5.6 µM
IC50 ([5]; SK-Mel-103, senescence induction: Bleomycin, read-out: Activity against Senescent Cells (IC50; uM)): 5.6 µM
IC50 ([5]; SK-Mel-103 proliferating, read-out: Activity against Proliferating Cells (IC50; uM)): 18.5 µM
Selectivity (Prolif/Sen) ([5]; SK-Mel-103, Bleomycin): 3.3
IC50 ([6]; light or radiation study, mLF, senescence induction: Irradiation, read-out: Activity against Senescent Cells (IC50; uM)): 4 µM
IC50 ([6]; mLF proliferating, read-out: Activity against Proliferating Cells (IC50; uM)): 10.6 µM
IC50 ([6]; mLF, senescence induction: Bleomycin, read-out: Activity against Senescent Cells (IC50; uM)): 7.1 µM
Selectivity (Prolif/Sen) ([6]; mLF, Bleomycin): 1.5
Selectivity (Prolif/Sen) ([6]; mLF, Irradiation): 2.7
Selectivity (Prolif/Sen) ([7]; A549, Bleomycin): 3.7
Selectivity (Prolif/Sen) ([7]; A549, Irradiation): 4.5
IC50 ([7]; light or radiation study, A549, senescence induction: Irradiation, read-out: Activity against Senescent Cells (IC50; uM)): 3.7 µM
IC50 ([7]; A549, senescence induction: Bleomycin, read-out: Activity against Senescent Cells (IC50; uM)): 4.5 µM
IC50 ([7]; A549 proliferating, read-out: Activity against Proliferating Cells (IC50; uM)): 16.5 µM
sensitivity of senescent vs acutely damaged or proliferating NDF cells ([8]; 1.875-30 μM, 72 hours, bleomycin or 15 Gy senescent vs 4 Gy acutely damaged): greater sensitivity
IC50 ([8]; NDF proliferating, read-out: Activity against Proliferating Cells (IC50; uM)): 18.7 µM
IC50 ([8]; NDF, senescence induction: Bleomycin, read-out: Activity against Senescent Cells (IC50; uM)): 3.5 µM
IC50 ([8]; NDF, senescence induction: Busulfan, read-out: Activity against Senescent Cells (IC50; uM)): 3.6 µM
IC50 ([8]; NDF, senescence induction: Doxorubicin, read-out: Activity against Senescent Cells (IC50; uM)): 5.1 µM
IC50 ([8]; NDF, senescence induction: Etoposide, read-out: Activity against Senescent Cells (IC50; uM)): 3.8 µM
IC50 ([8]; NDF, senescence induction: H2O2, read-out: Activity against Senescent Cells (IC50; uM)): 3.2 µM
IC50 ([8]; NDF, senescence induction: H-Ras, read-out: Activity against Senescent Cells (IC50; uM)): 8.9 µM
IC50 ([8]; NDF, senescence induction: Replicative (late passage), read-out: Activity against Senescent Cells (IC50; uM)): 10.5 µM
IC50 ([8]; light or radiation study, NDF, senescence induction: Irradiation, read-out: Activity against Senescent Cells (IC50; uM)): 6.5 µM
Selectivity (Prolif/Sen) ([8]; NDF, Busulfan): 5.3
Selectivity (Prolif/Sen) ([8]; NDF, Doxorubicin): 3.7
Selectivity (Prolif/Sen) ([8]; NDF, Etoposide): 4.9
Selectivity (Prolif/Sen) ([8]; NDF, H2O2): 5.9
Selectivity (Prolif/Sen) ([8]; NDF, H-Ras): 2.1
Selectivity (Prolif/Sen) ([8]; NDF, Replicative (late passage)): 1.8
number of viable senescent NDF cells ([8]; concentrations as low as 2.5 μM, doxorubicin-, bleomycin- and gamma-irradiation-induced senescence, 72 hours): significantly reduced
